Measurements as given in patent US20120053053A1, “PYRIMIDINE DERIVATIVES AND THEIR USE AS HERBICIDES” (SYNGENTA CROP PROTECTION, LLC, priority 2009, published 2012).
Several values for one entry are separate records, joined by “and”; a condition that tells them apart may be missing. Equal values may be shown once.

Key:
Assay type in all cases: in vivo
Setaria faberi (SETFA) [1] = experiment: Pre-emergence biological efficacy (percentage damage); conditions: dose 1,000 g/ha, evaluated after 13 days, 100=total damage, 0=no damage; for pest or weed control at 1000 g/ha: Setaria faberi, 312 h
Summary of the method: (§1)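 Seeds were sown in standard soil in pots and, one day later, sprayed with test compound at 250 or 1000 g/ha in acetone/water (50:50) with 0.5% Tween 20. Plants grew in a glasshouse at 24/16 °C day/night, 14 h light, 65% humidity; damage was scored after 13 days (0 = none, 100 = total).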

Solanum nigrum (SOLNI) [2] = experiment: as above; conditions: dose 1,000 g/ha, evaluated after 13 days, 100=total damage, 0=no damage; for pest or weed control at 1000 g/ha: Solanum nigrum, 312 h
Summary of the method: as §1

[3] = tested on: Ipomea hederaceae (IPOHE); experiment: as above; conditions: dose 1,000 g/ha, evaluated after 13 days, 100=total damage, 0=no damage; for pest or weed control at 1000 g/ha: Ipomoea hederacea, 312 h
Summary of the method: as §1

[4] = tested on: Amaranthus retoflexus (AMARE); experiment: as above; conditions: dose 1,000 g/ha, evaluated after 13 days, 100=total damage, 0=no damage; for pest or weed control at 1000 g/ha: Amaranthus retroflexus, 312 h
Summary of the method: as §1

[5] = tested on: Echinochloa crus-galli (ECHCG); experiment: as above; conditions: dose 1,000 g/ha, evaluated after 13 days, 100=total damage, 0=no damage; for pest or weed control at 1000 g/ha: Echinochloa crus-galli, 312 h
Summary of the method: as §1

[6] = tested on: Alopecurus myosuroides (ALOMY); experiment: as above; conditions: dose 1,000 g/ha, evaluated after 13 days, 100=total damage, 0=no damage; for pest or weed control at 1000 g/ha: Alopecurus myosuroides, 312 h
Summary of the method: as §1

Setaria faberi (SETFA) [7] = experiment: Post-emergence biological efficacy (percentage damage); conditions: dose 1,000 g/ha, evaluated after 13 days, 100=total damage, 0=no damage; for pest or weed control at 1000 g/ha: Setaria faberi, 312 h
Summary of the method: (§2)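 Percentage damage (0 no damage to 100 total) was assessed 13 days after spraying plants raised for 8 days in pots. Test compound was applied as an aqueous acetone/water (50:50) spray containing 0.5% Tween 20 to give 250 or 1000 g/ha.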

Solanum nigrum (SOLNI) [8] = experiment: as above; conditions: dose 1,000 g/ha, evaluated after 13 days, 100=total damage, 0=no damage; for pest or weed control at 1000 g/ha: Solanum nigrum, 312 h
Summary of the method: as §2

[9] = tested on: Ipomea hederaceae (IPOHE); experiment: as above; conditions: dose 1,000 g/ha, evaluated after 13 days, 100=total damage, 0=no damage; for pest or weed control at 1000 g/ha: Ipomoea hederacea, 312 h
Summary of the method: as §2

[10] = tested on: Amaranthus retoflexus (AMARE); experiment: as above; conditions: dose 1,000 g/ha, evaluated after 13 days, 100=total damage, 0=no damage; for pest or weed control at 1000 g/ha: Amaranthus retroflexus, 312 h
Summary of the method: as §2

[11] = tested on: Echinochloa crus-galli (ECHCG); experiment: as above; conditions: dose 1,000 g/ha, evaluated after 13 days, 100=total damage, 0=no damage; for pest or weed control at 1000 g/ha: Echinochloa crus-galli, 312 h
Summary of the method: as §2

[12] = tested on: Alopecurus myosuroides (ALOMY); experiment: as above; conditions: dose 1,000 g/ha, evaluated after 13 days, 100=total damage, 0=no damage; for pest or weed control at 1000 g/ha: Alopecurus myosuroides, 312 h
Summary of the method: as §2

Structure (SMILES) | pest or weed control at 1000 g/ha (Setaria faberi (SETFA) [1]) | pest or weed control at 1000 g/ha (Solanum nigrum (SOLNI) [2]) | pest or weed control at 1000 g/ha [3] | pest or weed control at 1000 g/ha [4] | pest or weed control at 1000 g/ha [5] | pest or weed control at 1000 g/ha [6] | pest or weed control at 1000 g/ha (Setaria faberi (SETFA) [7]) | pest or weed control at 1000 g/ha (Solanum nigrum (SOLNI) [8]) | pest or weed control at 1000 g/ha [9] | pest or weed control at 1000 g/ha [10] | pest or weed control at 1000 g/ha [11] | pest or weed control at 1000 g/ha [12] | Percentage damage SETFA, pre-emergence (Setaria faberi (SETFA) [1]) | Percentage damage SOLNI, pre-emergence (Solanum nigrum (SOLNI) [2]) | Percentage damage IPOHE, pre-emergence [3] | Percentage damage AMARE, pre-emergence [4] | Percentage damage ECHCG, pre-emergence [5] | Percentage damage ALOMY, pre-emergence [6] | Percentage damage SETFA, post-emergence (Setaria faberi (SETFA) [7]) | Percentage damage SOLNI, post-emergence (Solanum nigrum (SOLNI) [8]) | further results
Cc1c(Cl)nc(C2CC2)nc1OCC(=O)O [Compound 2-375, (4-chloro-2-cyclopropyl-5-methyl-pyrimidin-6-yloxy)-acetic acid] | 0% | 0% | 20% | 0% | 0% | 0% | 0% | 10% | 20% | 10% | 0% | 0% | – | – | – | – | – | – | – | – | –
C=Cc1c(N)nc(-c2ccc3ccccc3c2)nc1C(=O)OC [Compound 73-61, 4-Amino-5-ethenyl-6-methoxycarbonyl-2-(2-naphthyl)-pyrimidine] | 0% | 0% | 0% | 0% | 0% | 0% | 0% | 30% | 0% | 20% | 0% | 0% | – | – | – | – | – | – | – | – | –
C/C=C\c1c(N)nc(-c2ccc(Cl)c(N(C)C)c2F)nc1C(=O)OC [33-62 (Z)] | – | – | – | – | – | – | – | – | – | – | – | – | 30% | 60% | 20% | 70% | 30% | 30% | 80% and 70% | 80% | Percentage damage IPOHE, post-emergence [9]: 40% and 30%; Percentage damage AMARE, post-emergence [10]: 100%; Percentage damage ECHCG, post-emergence [11]: 80% and 70%; Percentage damage ALOMY, post-emergence [12]: 80% and 60%
COC(=O)c1nc(C2CC2)nc(N(C)C)c1C [Compound 2-221, 2-Cyclopropyl-4-dimethylamino-6-methoxycarbonyl-5-methylpyrimidine] | 0% | 60% | 70% | 60% | 0% | 30% | 60% | 80% | 80% | 100% | 70% | 20% | – | – | – | – | – | – | – | – | –
CCc1c(N)nc(-c2ccc(C(F)(F)F)cc2)nc1C(=O)OC [Compound 31-42, 4-amino-5-ethyl-6-methoxycarbonyl-2-(4-trifluoro-methylphenyl)-pyrimidine] | 0% | 0% | 0% | 0% | 0% | 0% | 0% | 10% | 0% | 0% | 0% | 0% | – | – | – | – | – | – | – | – | –
C=Cc1c(N)nc(-c2ccc(Cl)c(N(C)C)c2F)nc1C(=O)OC(C)C [Compound 33-306, 4-Amino-2-(4-chloro-3-dimethylamino-2-fluorophenyl)-5-ethenyl-6-isopropoxycarbon-yl-pyrimidine] | 20% | 80% | 0% | 40% | 20% | 20% | 70% | 100% | 30% | 100% | 70% | 40% | – | – | – | – | – | – | – | – | –
C=Cc1c(N)nc(-c2ccc(Cl)c(OC)c2)nc1C(=O)OC [Compound 26-61, 4-Amino-2-(4-chloro-3-methoxyphenyl)-5-ethenyl-6-methoxycarbonyl-pyrimidine] | 0% | 80% | 20% | 100% | 0% | 0% | 0% | 80% | 70% | 100% | 60% | 50% | – | – | – | – | – | – | – | – | –
C=Cc1c(N)nc(-c2ccc(Cl)c(N(C)C)c2F)nc1C(=O)OCCCCCCCC [Compound 33-392] | – | – | – | – | – | – | – | – | – | – | – | – | 90% | 80% | 0% | 100% | 100% | 70% | 60% | 90% | Percentage damage IPOHE, post-emergence [9]: 80%; Percentage damage AMARE, post-emergence [10]: 100%; Percentage damage ECHCG, post-emergence [11]: 80%; Percentage damage ALOMY, post-emergence [12]: 70%
C/C=C\c1c(N)nc(C2CC2)nc1C(=O)OC [2-62 (Z)] | – | – | – | – | – | – | – | – | – | – | – | – | 20% | 100% | 100% | 90% | 10% | 20% | 30% | 70% | Percentage damage IPOHE, post-emergence [9]: 100%; Percentage damage AMARE, post-emergence [10]: 70%; Percentage damage ECHCG, post-emergence [11]: 10%; Percentage damage ALOMY, post-emergence [12]: 10%
C=C(C)c1c(N)nc(-c2ccc(Cl)c(OC)c2F)nc1C(=O)OC [Compound 27-63, 4-Amino-2-(4-chloro-2-fluoro-3-methoxyphenyl)-6-methoxycarbonyl-5-(prop-1-en-2-yl)-pyrimidine] | 50% | 100% | 100% | 100% | 80% | 50% | 90% | 90% | 90% | 100% | 70% | 60% | – | – | – | – | – | – | – | – | –
C/C=C/c1c(N)nc(C2CC2)nc1C(=O)OC [2-62 (E)] | – | – | – | – | – | – | – | – | – | – | – | – | 0% | 70% | 30% | 40% | 10% | 10% | 20% | 70% | Percentage damage IPOHE, post-emergence [9]: 50%; Percentage damage AMARE, post-emergence [10]: 40%; Percentage damage ECHCG, post-emergence [11]: 10%; Percentage damage ALOMY, post-emergence [12]: 10%
